Test results published in patent US8344027B2, “4-dimethylaminobutyric acid derivatives” (Hoffmann-La Roche Inc., priority 2008, dated 2013).

Legend:
hCPT2 = target: T1, hCPT2 (Homo sapiens, UniProt P23786); experiment: CPT2 inhibition, spectrophotometric DTNB (Ellman's reagent) assay; type: biochemical; conditions: human CPT2 expressed in P. pastoris, cell extract; carnitine 500 μM, palmitoyl-CoA 80 μM, DTNB 300 μM
T1 construct: made in house; host or cells: Pichia pastoris strain X-33
T1 sequence (P23786 26-658): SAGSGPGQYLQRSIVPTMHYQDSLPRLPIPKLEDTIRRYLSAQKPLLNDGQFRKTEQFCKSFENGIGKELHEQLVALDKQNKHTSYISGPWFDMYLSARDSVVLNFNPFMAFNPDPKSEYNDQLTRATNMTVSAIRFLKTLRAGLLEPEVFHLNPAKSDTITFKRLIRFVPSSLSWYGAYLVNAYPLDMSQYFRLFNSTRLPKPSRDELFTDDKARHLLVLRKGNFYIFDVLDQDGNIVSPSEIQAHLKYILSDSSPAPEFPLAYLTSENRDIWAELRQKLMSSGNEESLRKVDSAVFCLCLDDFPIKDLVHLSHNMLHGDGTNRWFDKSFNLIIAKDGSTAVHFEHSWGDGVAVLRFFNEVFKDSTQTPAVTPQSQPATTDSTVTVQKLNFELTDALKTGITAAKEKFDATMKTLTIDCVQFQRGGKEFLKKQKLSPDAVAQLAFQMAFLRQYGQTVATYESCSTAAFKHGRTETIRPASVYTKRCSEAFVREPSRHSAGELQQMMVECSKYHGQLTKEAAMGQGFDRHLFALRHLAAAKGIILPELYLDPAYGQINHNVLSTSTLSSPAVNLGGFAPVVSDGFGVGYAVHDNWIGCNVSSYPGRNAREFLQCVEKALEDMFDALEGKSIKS
Protocol: (§1) The following tests were carried out in order to determine the activity of the compounds of the present invention. Background information on the performed assays can be found in: Jackson et al., 1999, Biochem. J. 341, 483-489 and Jackson et al., 2000, J. Biol. Chem. 275, 19560-19566.
(§2) Human and rat CPT2- and liver CPT1 cDNAs, and human muscle CPT1 cDNA were subcloned in pGAPZB or pGAPZA, respectively. These plasmids were used to transform P. pastoris strain X-33 via electroporation after the preparation of electrocompetent cells. High copy number clones were selected where necessary using 0.5 or 1 mg/ml Zeocin. Cultures for activity measurements were induced for 16 h in YPD medium (1% yeast extract, 2% peptone, 2% glucose). Crude cell extracts were prepared by disrupting the cells with glass beads or French Press, depending on fermenter sizes. After centrifugation, the cell-free extracts were resuspended in cell breaking buffer (50 mM Tris, pH7.4, 100 mM KCl, 1 mM EDTA) in the presence of a protease inhibitor cocktail, before aliquoting and freezing at −20° C.
(§3) CPT activity was measured using a spectrophotometric assay using 5,5′-dithio-bis-(2-nitrobenzoic acid) (DTNB) also called Ellman's reagent. The HS-CoA released on the formation of acylcarnitine from carnitine (500 μM) and palmitoyl-CoA (80 μM) reduced DTNB (300 μM) forming 5-mercapto-2-nitrobenzoic acid which absorbed at 410 nm with a molar extinction coefficient of 13600 M^−1cm^−1. The assay buffer contained 120 mM KCl, 25 mM Tris, pH 7.4, 1 mM EDTA. This assay was used for the identification of CPT inhibitors, particularly/preferentially CPT2-selective inhibitors, versus the liver and muscle CPT1 isoforms.

hL-CPT1 = target: T2, hL-CPT1 (Homo sapiens, UniProt P50416); experiment: liver CPT1 inhibition, spectrophotometric DTNB (Ellman's reagent) assay; type: biochemical; conditions: human liver CPT1 expressed in P. pastoris, cell extract; carnitine 500 μM, palmitoyl-CoA 80 μM, DTNB 300 μM
T2 construct: made in house; host or cells: Pichia pastoris strain X-33
T2 sequence (P50416 1-773): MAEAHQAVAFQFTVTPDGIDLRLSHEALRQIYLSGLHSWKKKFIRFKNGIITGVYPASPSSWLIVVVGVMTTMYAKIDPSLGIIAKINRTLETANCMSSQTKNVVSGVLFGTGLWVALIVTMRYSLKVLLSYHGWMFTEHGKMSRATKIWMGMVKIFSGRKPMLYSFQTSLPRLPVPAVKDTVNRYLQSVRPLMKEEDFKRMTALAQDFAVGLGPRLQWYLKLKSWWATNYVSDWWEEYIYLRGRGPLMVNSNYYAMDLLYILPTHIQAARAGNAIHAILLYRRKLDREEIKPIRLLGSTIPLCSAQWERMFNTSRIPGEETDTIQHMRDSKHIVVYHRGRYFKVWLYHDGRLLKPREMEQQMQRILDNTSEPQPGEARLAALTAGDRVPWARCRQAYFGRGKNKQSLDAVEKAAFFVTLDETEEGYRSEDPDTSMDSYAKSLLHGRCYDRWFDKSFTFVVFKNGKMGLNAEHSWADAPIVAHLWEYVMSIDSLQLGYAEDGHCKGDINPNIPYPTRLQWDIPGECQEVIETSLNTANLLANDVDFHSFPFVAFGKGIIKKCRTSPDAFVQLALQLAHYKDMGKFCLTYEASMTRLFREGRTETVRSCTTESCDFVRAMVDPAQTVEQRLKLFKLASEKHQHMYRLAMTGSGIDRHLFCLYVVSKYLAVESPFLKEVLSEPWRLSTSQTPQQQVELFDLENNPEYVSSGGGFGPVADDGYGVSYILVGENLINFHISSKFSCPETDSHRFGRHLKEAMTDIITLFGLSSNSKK
Protocol: as §1, §2, §3

| IC50 (hCPT2) [nM] | IC50 (hL-CPT1) [nM] | Compound |
| --- | --- | --- |
| 783 | > 10000 | CN(C)C[C@@H](CC(=O)O)NC(=O)CCCCCCCOCc1cccc(F)c1 [Example 14, (R)-4-Dimethylamino-3-[8-(3-fluoro-benzyloxy)-octanoylamino]-butyric acid] |
| 184 | 1060 | CN(C)C[C@@H](CC(=O)O)NC(=O)CCCCCCCCCCCc1ccccc1 [Example 51, (R)-4-Dimethylamino-3-(12-phenyl-dodecanoylamino)-butyric acid] |
| 317 | > 10000 | Cc1ccc(C)c(CCCCCCCCCC(=O)N[C@H](CC(=O)O)CN(C)C)c1 [Example 36, (R)-4-Dimethylamino-3-[10-(2,5-dimethyl-phenyl)-decanoylamino]-butyric acid] |
| 15 | 5440 | COc1ccc(OCCCCCCCCC(=O)N[C@H](CC(=O)O)CN(C)C)cc1 [Example 28, (R)-4-Dimethylamino-3-[9-(4-methoxy-phenoxy)-nonanoylamino]-butyric acid] |
| 152 | > 10000 | COc1ccc(COCCCCCCCC(=O)N[C@H](CC(=O)O)CN(C)C)cc1 [Example 8, (R)-4-Dimethylamino-3-[8-(4-methoxy-benzyloxy)-octanoylamino]-butyric acid] |
| 101 |  | CN(C)C[C@@H](CC(=O)O)NC(=O)CCCCCCCOCCOc1ccccc1 [Example 56, (R)-4-Dimethylamino-3-[8-(2-phenoxy-ethoxy)-octanoylamino]-butyric acid] |
| 36 |  | CN(C)C[C@@H](CC(=O)O)NC(=O)CCCCCCCCCCOc1ccccc1 [Example 30, (R)-4-Dimethylamino-3-(11-phenoxy-undecanoylamino)-butyric acid] |
| 3 | > 10000 | CN(C)C[C@@H](CC(=O)O)NC(=O)CCCCCCCCCc1cccc2ccccc12 [Example 39, (R)-4-Dimethylamino-3-(10-naphthalen-1-yl-decanoylamino)-butyric acid] |
| 452 | > 10000 | CN(C)C[C@@H](CC(=O)O)NC(=O)CCCCCCCCOc1ccccc1F [Example 18, (R)-4-Dimethylamino-3-[9-(2-fluoro-phenoxy)-nonanoylamino]-butyric acid] |
| 22 | 2340 | CN(C)C[C@@H](CC(=O)O)NC(=O)CCCCCCCCCc1cccc(F)c1F [Example 42, (R)-3-[10-(2,3-Difluoro-phenyl)-decanoylamino]-4-dimethylamino-butyric acid] |
| 21 | 1000 | CN(C)C[C@@H](CC(=O)O)NC(=O)CCCCCCCCOc1ccc(F)cc1 [Example 20, (R)-4-Dimethylamino-3-[9-(4-fluoro-phenoxy)-nonanoylamino]-butyric acid] |
| 160 | > 10000 | CN(C)C[C@@H](CC(=O)O)NC(=O)CCCCCCCCOc1cccc2ccccc12 [Example 29, (R)-4-Dimethylamino-3-[9-(naphthalen-1-yloxy)-nonanoylamino]-butyric acid] |
| 98 | 7720 | CN(C)C[C@@H](CC(=O)O)NC(=O)CCCCCCCCCc1cccc(F)c1 [Example 41, (R)-4-Dimethylamino-3-[10-(3-fluoro-phenyl)-decanoylamino]-butyric acid] |
| 332 | 2870 | CN(C)C[C@@H](CC(=O)O)NC(=O)NCCCCCCCCCc1ccccc1 [Example 63, (R)-4-Dimethylamino-3-[3-(9-phenyl-nonyl)-ureido]-butyric acid] |
| 2940 | > 10000 | COc1c(F)c(F)c(COCCCCCCCC(=O)N[C@H](CC(=O)O)CN(C)C)c(F)c1F [Example 11, (R)-4-Dimethylamino-3-[8-(2,3,5,6-tetrafluoro-4-methoxy-benzyloxy)-octanoylamino]-butyric acid] |
| 189 | > 10000 | CN(C)C[C@@H](CC(=O)O)NC(=O)CCCCCCCOCc1ccc(C(F)(F)F)cc1 [Example 6, (R)-4-Dimethylamino-3-[8-(4-trifluoromethyl-benzyloxy)-octanoylamino]-butyric acid] |
| 265 | 6680 | CN(C)C[C@@H](CC(=O)O)NC(=O)CCCCCCCCOc1cccc(F)c1F [Example 21, (R)-3-[9-(2,3-Difluoro-phenoxy)-nonanoylamino]-4-dimethylamino-butyric acid] |
| 16 | 2330 | CN(C)C[C@@H](CC(=O)O)NC(=O)CCCCCCCCOc1cccc(F)c1 [Example 19, (R)-4-Dimethylamino-3-[9-(3-fluoro-phenoxy)-nonanoylamino]-butyric acid] |
| 241 | > 10000 | Cc1cccc(C)c1CCCCCCCCCC(=O)N[C@H](CC(=O)O)CN(C)C [Example 37, (R)-4-Dimethylamino-3-[10-(2,6-dimethyl-phenyl)-decanoylamino]-butyric acid] |
| 910 | 7770 | CN(C)C[C@@H](CC(=O)O)NC(=O)CCCCCCCOCc1ccc(F)c(F)c1 [Example 1, (R)-3-[8-(3,4-Difluoro-benzyloxy)-octanoylamino]-4-dimethylamino-butyric acid] |
| 44 | 6550 | CN(C)C[C@@H](CC(=O)O)NC(=O)CCCCCCCCCc1ccc(C(F)(F)F)cc1 [Example 40, (R)-4-Dimethylamino-3-[10-(4-trifluoromethyl-phenyl)-decanoylamino]-butyric acid] |
| 118 | 7310 | CN(C)C[C@@H](CC(=O)O)NC(=O)CCCCCCCCCc1ccsc1 [Example 43, (R)-4-Dimethylamino-3-(10-thiophen-3-yl-decanoylamino)-butyric acid] |
| 400 | 1150 | COc1ccc(OCCCCCCCCC(=O)N[C@H](CC(=O)O)CN(C)C)cc1OC [Example 26, (R)-3-[9-(3,4-Dimethoxy-phenoxy)-nonanoylamino]-4-dimethylamino-butyric acid] |
| 73 | 5360 | CN(C)C[C@@H](CC(=O)O)NC(=O)CCCCCCCCOc1ccc(F)c(F)c1F [Example 24, (R)-4-Dimethylamino-3-[9-(2,3,4-trifluoro-phenoxy)-nonanoylamino]-butyric acid] |
| 82 |  | CN(C)C[C@@H](CC(=O)O)NC(=O)CCCCCCCCOCCc1ccccc1 [Example 54, (R)-4-Dimethylamino-3-(9-phenethyloxy-nonanoylamino)-butyric acid] |
| 1440 |  | (R)-3-{3-[6-(2,3-Difluoro-benzyloxy)-hexyl]-ureido}-4-dimethylamino-butyric acid [Example 62] |
| 65 |  | CN(C)C[C@@H](CC(=O)O)NC(=O)CCCCCCCOCCCc1ccccc1 [Example 55, (R)-4-Dimethylamino-3-[8-(3-phenyl-propoxy)-octanoylamino]-butyric acid] |
